{"source": "patent US20050107289A1", "about": "“Anti-microbial peptides and compositions” (priority 2001, published 2005)", "key": {"[1]": {"system": "H. influenzae ATCC 49247", "experiment": "microbe, parasite or virus in culture", "assay_type": "cell-based, Hemophilus influenzae", "settings": "for MIC: Haemophilus influenzae, ATCC49247, HTM, read-out: H. influenzae ATCC 49247 MIC", "description": "(§1) The antimicrobial activity of the peptides was determined using a broth dilution assay essentially as descried in the guidelines of the National Committee for […] (NCCLS) [National Committee for Clinical Laboratory Standards. Methods for dilution antimicrobial susceptibility tests for bacteria that grow aerobically. Fourth edition. Approved Standard (1997). Document M7-A4. […] The microdilution method has the advantages of requiring less amount of peptide for each assay and the possibility of multiple simultaneous inoculations and was used in most studies. Several of the strains of bacteria tested are further described in Table 3.\n(§2) Preparation of peptide solutions. Stock peptide solutions were prepared in 5% DMSO in aq. sucrose (9%). Determination of peptide concentrations was done by quantitative HPLC analysis using known concentrations of internal standards and/or by measuring UV absorption of tryptophane-containing peptide solutions in H2O (λ=280 εTrp: 5690). Serial 2-fold dilutions were made in the above DMSO/aq. sucrose (9%) mixture with concentrations ranging approximately 400-2 μg/ml and aliquots were dispensed in test tubes (100 μl) for the macrodilution test or in microtiter plates (20 μl) for the microdilution assays.\n(§3) Inoculum preparation. Overnight cultures of different microorganisms grown in suitable media were diluted 4000 times to an approximate inoculum size of 2.5×10^5 cfu/ml.\n(§4) Macrodilution method. Macrodilution methods were performed using procedures similar to those described in the National Committee for Clinical Laboratory Standards. Methods for dilution antimicrobial susceptibility tests for bacteria that grow aerobically. Fourth edition. Approved Standard (1997). Document M7-A4. (NCCLS,Villanova, Pa., 1997). Two ml aliquots of the above inoculum were dispensed to test tubes containing different peptide solutions.\n(§5) Microdilution method. Microdilution methods were performed using procedures similar to those described in the National Committee for Clinical Laboratory Standards. Methods for dilution antimicrobial susceptibility tests for bacteria that grow aerobically. Fourth edition. Approved Standard (1997). Document M7-A4."}, "[2]": {"system": "vancomycin-resistant Enterococus faecalis (VRE)(ATCC 51575)", "assay_type": "cell-based, Enterococcus faecalis", "parameters": "key to VRE (in vitro activity): peptide concentration in μg/ml (broth dilution assay)", "settings": "Table 9; media c: Brain Heart Infusion (BHI)", "in_short": "(§6)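 Broth microdilution (macrodilution in some cases) per NCCLS M7-A4; peptides 2-fold serially diluted in 5% DMSO/9% sucrose, ~400-2 μg/ml before dilution into broth; inoculum ~2.5×10^5 cfu/ml from overnight culture diluted 4000×.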"}, "[3]": {"system": "S. aureus ATCC 33592", "experiment": "microbe, parasite or virus in culture", "assay_type": "cell-based, Staphylococcus aureus", "settings": "for MIC: Staphylococcus aureus", "description": "as §1, §2, §3, §4, §5"}, "[4]": {"system": "murine red blood cells", "experiment": "Red blood cell hemolysis", "assay_type": "cell-based, mouse", "in_short": "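Washed murine erythrocytes at 5% in saline with 10% FBS were exposed to serial peptide dilutions for 30 min at 37° C. Supernatant absorbance at 560 nm was read, with saline as 0% and 1% Triton X-100 as 100% hemolysis.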"}, "[5]": {"system": "E. faecalis ATCC 51299", "experiment": "microbe, parasite or virus in culture", "assay_type": "cell-based, Enterococcus faecalis", "settings": "for MIC: Enterococcus faecalis", "description": "as §1, §2, §3, §4, §5"}, "[6]": {"system": "E. faecium SP180", "experiment": "microbe, parasite or virus in culture", "assay_type": "cell-based, Enterococcus faecium", "settings": "for MIC: Enterococcus faecium", "description": "as §1, §2, §3, §4, §5"}, "[7]": {"system": "S. aureus (MRSA) ATCC 33591", "assay_type": "cell-based, Staphylococcus aureus", "settings": "Table 9; media b: cation adjusted Meuller Hinton broth (MHBII)", "in_short": "as §6"}, "[8]": {"system": "E. coli (EL744) K12 (tolC::kan)", "experiment": "microbe, parasite or virus in culture", "assay_type": "cell-based, Escherichia coli", "settings": "for MIC: Escherichia coli, read-out: E. coli (EL744) K12 (tolC::kan) MIC; for E. coli (EL744) K12 (tolC::kan) MIC: MHII broth", "description": "as §1, §2, §3, §4, §5"}, "[9]": {"system": "E. coli (K12)", "experiment": "microbe, parasite or virus in culture", "assay_type": "cell-based, Escherichia coli", "settings": "for MIC: Escherichia coli, MHII broth, read-out: E. coli (K12) MIC", "description": "as §1, §2, §3, §4, §5"}, "[10]": {"experiment": "Single channel conductance in planar lipid membranes", "settings": "for rate of channel mediated K+ transport / observed conductance: 500 mM KCl; for observed conductance: peptide about 30 mM in the subphase; for transport speed relative to gramicidin A: similar conditions", "description": "The ion transport properties of tetrapeptides cyclo[(β-Trp)4] and cyclo[(β-Trp-β-Leu)2], synthesized via established protocols, were studied in liposome-based assays and by single channel conductance measurements in planar lipid membranes. The observed conductance in 500 mM KCl with peptide concentrations of about […] in the subphase is 56 pS, corresponding to the rates of channel mediated K^+ transport of 1.9×10^7 ions s^−1 for both tetrapeptides."}}, "note": "Structures can show the parent of a compound that is named as a salt. Where two headings read alike, the source gives them in different places. Non-standard residues stand in square brackets, D forms with d. Residues, ends and D or L forms follow the SMILES beside them.", "data": [{"compound": "CCn1cc(C(=O)O)c(=O)c2cc(F)c(N3CCNCC3)cc21", "note": "[Norfloxacin, reference compound]", "values": [{"measurement": "MIC", "setting": "[1]", "result": 0.06, "unit": "µg/mL"}, {"measurement": "VRE (in vitro activity)", "setting": "[2]", "result": "<2.8"}, {"measurement": "MIC", "setting": "[3]; ATCC33592, MHII broth, read-out: S. aureus ATCC 33592 MIC", "result": 0.5, "unit": "µg/mL"}, {"measurement": "RBC Hemolysis (HD50)", "setting": "[4]; mouse, 30 min", "result": ">360"}, {"measurement": "MIC", "setting": "[5]; ATCC51299, BHI broth, read-out: E. faecalis ATCC 51299 MIC", "result": 2, "unit": "µg/mL"}, {"measurement": "MIC", "setting": "[6]; SP180, BHI broth, read-out: E. faecium SP180 MIC", "result": 32, "unit": "µg/mL"}, {"measurement": "MRSA (in vitro activity)", "setting": "[7]", "result": "<2.8"}, {"measurement": "MIC", "setting": "[8]", "result": 0.016, "unit": "µg/mL"}, {"measurement": "MIC", "setting": "[9]", "result": 0.06, "unit": "µg/mL"}]}, {"compound": "CC(C)C[C@H]1NC(=O)[C@H](CCCCN)NC(=O)[C@@H](CCCCN)NC(=O)[C@H](Cc2c[nH]c3ccccc23)NC(=O)[C@@H](CC(C)C)NC(=O)[C@H](Cc2c[nH]c3ccccc23)NC1=O", "note": "[[KKLWLW]-HCl, cyclo-(D-Lys-Lys-D-Leu-Trp-D-Leu-Trp)] (cyclo(K[dL]W[dL]W[dK]))", "values": [{"measurement": "H. influenzae ATCC 49247 MIC", "setting": "[1]", "result": ">128", "unit": "µg/mL"}, {"measurement": "S. aureus ATCC 33592 MIC", "setting": "[3]", "result": 32, "unit": "µg/mL"}, {"measurement": "E. faecalis ATCC 51299 MIC", "setting": "[5]", "result": ">128", "unit": "µg/mL"}, {"measurement": "E. faecium SP180 MIC", "setting": "[6]; SP180", "result": 16, "unit": "µg/mL"}, {"measurement": "E. coli (EL744) K12 (tolC::kan) MIC", "setting": "[8]", "result": 32, "unit": "µg/mL"}, {"measurement": "E. coli (K12) MIC", "setting": "[9]", "result": ">128", "unit": "µg/mL"}]}, {"compound": "CC(C)C[C@H]1NC(=O)[C@H](CCCNC(=N)N)NC(=O)[C@@H](CCCNC(=N)N)NC(=O)[C@H](Cc2c[nH]c3ccccc23)NC(=O)[C@@H](CC(C)C)NC(=O)[C@H](Cc2c[nH]c3ccccc23)NC1=O", "note": "[[RRLWLW]-HCl, cyclo-(D-Arg-Arg-D-Leu-Trp-D-Leu-Trp)] (cyclo(R[dL]W[dL]W[dR]))", "values": [{"measurement": "H. influenzae ATCC 49247 MIC", "setting": "[1]", "result": "8 to 16", "unit": "µg/mL"}, {"measurement": "S. aureus ATCC 33592 MIC", "setting": "[3]", "result": 32, "unit": "µg/mL"}, {"measurement": "E. faecalis ATCC 51299 MIC", "setting": "[5]", "result": "32 to 64", "unit": "µg/mL"}, {"measurement": "E. faecium SP180 MIC", "setting": "[6]; SP180", "result": "8 to 16", "unit": "µg/mL"}, {"measurement": "E. coli (EL744) K12 (tolC::kan) MIC", "setting": "[8]", "result": 8, "unit": "µg/mL"}, {"measurement": "E. coli (K12) MIC", "setting": "[9]", "result": 16, "unit": "µg/mL"}]}, {"compound": "cyclo[(β-Trp)4]", "values": [{"measurement": "rate of channel mediated K+ transport", "setting": "[10]", "result": "1.9×10^7 ions s^−1"}, {"measurement": "observed conductance", "setting": "[10]", "result": 56, "unit": "pS"}, {"measurement": "transport speed relative to gramicidin A", "setting": "[10]", "result": "more than twice"}]}, {"compound": "cyclo[(β-Trp-β-Leu)2]", "values": [{"measurement": "rate of channel mediated K+ transport", "setting": "[10]", "result": "1.9×10^7 ions s^−1"}, {"measurement": "observed conductance", "setting": "[10]", "result": 56, "unit": "pS"}, {"measurement": "transport speed relative to gramicidin A", "setting": "[10]", "result": "more than twice"}]}, {"compound": "NC[C@H]1O[C@H](O[C@H]2[C@H](O)[C@@H](O[C@H]3O[C@H](CO)[C@@H](O)[C@H](N)[C@H]3O)[C@H](N)C[C@@H]2N)[C@H](O)[C@@H](O)[C@@H]1O", "note": "[Kanamycin, reference compound]", "values": [{"measurement": "MIC", "setting": "[1]", "result": 4, "unit": "µg/mL"}, {"measurement": "VRE (in vitro activity)", "setting": "[2]", "result": ">600"}, {"measurement": "MIC", "setting": "[3]; ATCC33592, read-out: S. aureus ATCC 33592 MIC", "result": "> 128", "unit": "µg/mL"}, {"measurement": "RBC Hemolysis (HD50)", "setting": "[4]; mouse, 30 min", "result": ">600"}, {"measurement": "MIC", "setting": "[5]; ATCC51299, read-out: E. faecalis ATCC 51299 MIC", "result": "> 128", "unit": "µg/mL"}, {"measurement": "MIC", "setting": "[6]; SP180, read-out: E. faecium SP180 MIC", "result": "> 128", "unit": "µg/mL"}, {"measurement": "MRSA (in vitro activity)", "setting": "[7]", "result": 150}, {"measurement": "MIC", "setting": "[8]", "result": "> 128", "unit": "µg/mL"}, {"measurement": "MIC", "setting": "[9]", "result": 4, "unit": "µg/mL"}]}, {"compound": "CC(C)C[C@H]1NC(=O)[C@H](Cc2c[nH]c3ccccc23)NC(=O)[C@@H](CCCCN)NC(=O)[C@H](CCCNC(=N)N)NC(=O)[C@@H](CCCNC(=N)N)NC(=O)[C@H](Cc2c[nH]c3ccccc23)NC(=O)[C@@H](CC(C)C)NC(=O)[C@H](Cc2c[nH]c3ccccc23)NC1=O", "note": "[[RRKWLWLW]-HCl, cyclo-(D-Arg-Arg-D-Lys-Trp-D-Leu-Trp-D-Leu-Trp)] (cyclo([dR]R[dK]W[dL]W[dL]W))", "values": [{"measurement": "H. influenzae ATCC 49247 MIC", "setting": "[1]", "result": "32 to 64", "unit": "µg/mL"}, {"measurement": "VRE (in vitro activity)", "setting": "[2]", "result": 9}, {"measurement": "S. aureus ATCC 33592 MIC", "setting": "[3]", "result": 8, "unit": "µg/mL"}, {"measurement": "RBC Hemolysis (HD50)", "setting": "[4]", "result": 70}, {"measurement": "E. faecalis ATCC 51299 MIC", "setting": "[5]", "result": "8 to 16", "unit": "µg/mL"}, {"measurement": "E. faecium SP180 MIC", "setting": "[6]; SP180", "result": 4, "unit": "µg/mL"}, {"measurement": "MRSA (in vitro activity)", "setting": "[7]", "result": 9}, {"measurement": "E. coli (K12) MIC", "setting": "[9]", "result": 32, "unit": "µg/mL"}]}]}
